According to patent US11427539B2, “Beta-hydroxy heterocyclic amines and their use in the treatment of hyperglycaemia” (ATROGI AB, priority 2017, dated 2022):
Where a name gives a salt, the structure may show the parent alone. Read-outs that look alike come from different tables or passages of the source.

What was measured:
[1] = system: Differentiated L6-myotubes; assay: Glucose uptake in differentiated L6-myotubes (3H-2-deoxy-glucose); type: cell-based; conditions: for Emax: read-out: Biological example 1: glucose uptake, activity compared to that of isoproterenol; for Biological example 1: glucose uptake, activity compared to that of isoproterenol: Hydrochloride
[2] = system: Intracellular cAMP levels in differentiated cells (L6-myotubes); assay: Measurement of intracellular cAMP levels (alpha screen cAMP kit); type: cell-based; conditions: for Emax: 0.25 h, read-out: Biological example 2: intracellular cAMP levels, activity compared to that of isoproterenol
Procedure: L6-myoblasts were grown in Dulbecco's Modified Eagle's Medium (DMEM) containing 4.5 g/l glucose supplemented with 10% fetal bovine serum, 2 mM L-Glutamine, 50 U/ml penicillin, 50 μg/ml streptomycin and 10 mM HEPES. Cells were plated at 1×10^5 cells per ml in 24-well plates. After reaching 90% confluence the cells were grown in medium containing 2% FBS for 7 days where upon cells differentiated into myotubes. Differentiated cells were serum-starved over night and stimulated with agonist, final concentration 1×10-^5, for 15 min in stimulation buffer (HBSS supplemented with 1% BSA, 5 mM HEPES and 1 mM IBMX, pH 7.4) The medium was then aspirated and to end the reaction 100 μL of 95% EtOH was added to each well of a 24-well plate and cells were kept in −20° C. over night. The EtOH was let to evaporate and 500 μL of lysis buffer (1% BSA, 5 mM HEPES and 0.3% Tween-20, pH 7.4) was added to each well before put in −80° C. for 30 min and then kept in −20° C. Intracellular cAMP levels were detected using an alpha screen cAMP kit (6760635D from Perkin Elmer). The activity for each compound is compared to that of isoproterenol.

[3] = agonist final concentration 1×10^−5, L6-myotubes, 3H-2-deoxy-glucose uptake, relative to isoproterenol
[4] = agonist final concentration 1×10-^5, 15 min, differentiated cells, relative to isoproterenol

| Compound | Emax [1, 3] | Emax [2, 4] | also measured |
| --- | --- | --- | --- |
| C[C@H]1CC[C@@H]([C@H](O)c2cccc(O)c2)N1 (racemic) [Example 9, Racemic mixture of 3-((R)-Hydroxy((2S,5S)-5-methylpyrrolidin-2-yl)methyl)-phenol Acetate and 3-((S)-Hydroxy((2R,5R)-5-methylpyrrolidin-2-yl)methyl)phenol Acetate] | 50 to 75% | < 25% | – |
| C[C@@H]1CC[C@H]([C@H](O)c2cccc(O)c2)N1 (racemic) [Example 10, Racemic Mixture of 3-((R)-Hydroxy((2R,5R)-5-methylpyrrolidin-2-yl)methyl)-phenol Acetate and 3-((S)-Hydroxy((2S,5S)-5-methylpyrrolidin-2-yl)methyl)phenol Acetate] | > 75% | < 25% | – |
| C[C@H]1CC[C@@H]([C@H](O)c2ccccc2)N1 (racemic) [Example 11, Racemic mixture of (R)-((2S,5S)-5-Methylpyrrolidin-2-yl)(phenyl)methanol and (S)-((2R,5R)-5-Methylpyrrolidin-2-yl)(phenyl)methanol] | – | – | Emax [1]: 25 to 50%; Emax [2]: < 25% |
| C[C@@H]1CC[C@H]([C@H](O)c2ccccc2)N1 (racemic) [Example 12, Racemic mixture of (R)-((2R,5R)-5-Methylpyrrolidin-2-yl)(phenyl)methanol and (S)-((2S,5S)-5-Methylpyrrolidin-2-yl)(phenyl)methanol] | – | – | Emax [1]: 50 to 75%; Emax [2]: < 25% |
| CCCC1CCC[C@H](C(O)c2cccc(O)c2)N1 (stereo in doubt) [Example 19, 3-((R)-Hydroxy((2R,6R)-6-propylpiperidin-2-yl)methyl)phenol Hydrochloride] | 25 to 50% | < 25% | – |
| CCC[C@@H]1CCCC([C@@H](O)c2cccc(O)c2)N1 (stereo in doubt) [Example 33, 3-((S)-hydroxy((2S,6R)-6-propylpiperidin-2-yl)methyl)phenol Hydrochloride] | – | – | Biological example 1: glucose uptake, activity compared to that of isoproterenol [1, 3]: ++ (between 75 and 50%); Biological example 2: intracellular cAMP levels, activity compared to that of isoproterenol [2, 4]: − (less than 25%) |
| CCC[C@H]1CC[C@H](C(O)c2cccc(O)c2)N1 (stereo in doubt) [Example 46, 3-((R)-hydroxy((2R,5S)-5-propylpyrrolidin-2-yl)methyl)phenol] | 50 to 75% | < 25% | – |
| CCC[C@@H]1CCC[C@H]([C@H](O)c2cccc(F)c2)N1 [Example 1, (R)-(3-Fluorophenyl)((2R,6R)-6-propylpiperidin-2-yl)methanol] | 25 to 50% | < 25% | – |
| CCC[C@H]1CCC[C@H]([C@H](O)c2cccc(F)c2)N1 [Example 2, (R)-(3-Fluorophenyl)((2R,6S)-6-propylpiperidin-2-yl)methanol] | > 75% | < 25% | – |
| CCC[C@H]1CCC[C@H]([C@H](O)c2cc(F)cc(F)c2)N1 [Example 3, (R)-(3,5-Difluorophenyl)((2R,6S)-6-propylpiperidin-2-yl)methanol] | > 75% | < 25% | – |
| CCC[C@H]1CCC[C@H]([C@H](O)c2ccc(F)c(F)c2)N1 [Example 4, (R)-(3,4-Difluorophenyl)((2R,6S)-6-propylpiperidin-2-yl)methanol] | 50 to 75% | < 25% | – |
| CCC[C@H]1CCC[C@H]([C@H](O)c2cccc(O)c2)N1 [Example 5, 3-((R)-Hydroxy((2R,6S)-6-propylpiperidin-2-yl)methyl)phenol Acetate] | > 75% | < 25% | – |
| CCC[C@@H]1CCC[C@H]([C@H](O)c2cccc(O)c2)N1 [Example 6, 3-((R)-Hydroxy((2R,6R)-6-propylpiperidin-2-yl)methyl)phenol] | 50 to 75% | < 25% | – |
| CCC[C@@H]1CC[C@H]([C@H](O)c2cccc(F)c2)N1 [Example 7, (R)-(3-Fluorophenyl)((2R,5R)-5-propylpyrrolidin-2-yl)methanol Acetate] | > 75% | < 25% | – |
| CCC[C@@H]1CC[C@H]([C@H](O)c2cccc(O)c2)N1 [Example 8, 3-((R)-Hydroxy((2R,5R)-5-propylpyrrolidin-2-yl)methyl)phenol] | > 75% | 25 to 50% | – |
| CCC[C@@H]1CCC[C@H]([C@@H](O)c2cccc(F)c2)N1 [Example 13, (S)-(3-Fluorophenyl)((2R,6R)-6-propylpiperidin-2-yl)methanol] | 50 to 75% | < 25% | – |
| CCC[C@@H]1CCC[C@H]([C@@H](O)c2cccc(O)c2)N1 [Example 14, 3-((S)-Hydroxy((2R,6R)-6-propylpiperidin-2-yl)methyl)phenol Hydrochloride] | – | < 25% | Biological example 1: glucose uptake, activity compared to that of isoproterenol [1, 3]: + (between 50 and 25%) |
| CCC[C@@H]1CCC[C@H]([C@H](O)c2ccc(F)cc2)N1 [Example 15, (R)-(4-Fluorophenyl)((2R,6R)-6-propylpiperidin-2-yl)methanol] | 50 to 75% | < 25% | – |
| CCC[C@@H]1CCC[C@H]([C@H](O)c2ccccc2F)N1 [Example 16, (R)-(2-Fluorophenyl)((2R,6R)-6-propylpiperidin-2-yl)methanol] | 50 to 75% | < 25% | – |
| CCC[C@@H]1CCC[C@H]([C@@H](O)c2ccccc2F)N1 [Example 17, (S)-(2-Fluorophenyl)((2R,6R)-6-propylpiperidin-2-yl)methanol hydrochloride] | 25 to 50% | < 25% | – |
| CCC[C@H]1CCC[C@H]([C@@H](O)c2cccc(F)c2)N1 [Example 18, (S)-(3-Fluorophenyl)((2R,6S)-6-propylpiperidin-2-yl)methanol] | 50 to 75% | < 25% | – |
| CCC[C@H]1CCC[C@H]([C@H](O)c2cccc(Cl)c2)N1 [Example 20, (R)-(3-Chlorophenyl)((2R,6S)-6-propylpiperidin-2-yl)methanol hydrochloride] | 25 to 50% | < 25% | – |
| CCC[C@H]1CCC[C@H]([C@@H](O)c2cccc(Cl)c2)N1 [Example 21, (S)-(3-Chlorophenyl)((2R,6S)-6-propylpiperidin-2-yl)methanol hydrochloride] | 25 to 50% | < 25% | – |
| CCC[C@H]1CCC[C@H]([C@H](O)c2ccccc2F)N1 [Example 22, (R)-(2-Fluorophenyl)((2R,6S)-6-propylpiperidin-2-yl)methanol] | 50 to 75% | < 25% | – |
| CCC[C@H]1CCC[C@H]([C@H](O)c2ccccc2Cl)N1 [Example 24, (R)-(2-Chlorophenyl)((2R,6S)-6-propylpiperidin-2-yl)methanol] | 25 to 50% | < 25% | – |
| CCC[C@H]1CCC[C@H]([C@H](O)c2ccc(F)cc2)N1 [Example 25, (R)-(4-Fluorophenyl)((2R,6S)-6-propylpipehdin-2-yl)methanol] | 50 to 75% | < 25% | – |
| CCC[C@H]1CCC[C@H]([C@@H](O)c2cc(F)cc(F)c2)N1 [Example 27, (S)-(3,5-Difluorophenyl)((2R,6S)-6-propylpiperidin-2-yl)methanol acetate] | 25 to 50% | < 25% | – |
| CCC[C@H]1CCC[C@H]([C@@H](O)c2ccc(F)c(F)c2)N1 [Example 28, (S)-(3,4-Difluorophenyl)((2R,6S)-6-propylpiperidin-2-yl)methanol] | 25 to 50% | < 25% | – |
